# According to paper PMC10959927, “Platinum iodido drugs show potential anti-tumor activity, affecting cancer cell metabolism and inducing ROS and senescence in gastrointestinal cancer cells” (Communications Biology, 2024):
# Several values for one entry are separate records, joined by “and”; a condition that tells them apart may be missing. Identical values can stand only once.
# Legend:
# Assay type in all cases: cell-based, human
# AGS cells [1] = test: SA-β-Gal histochemical staining; conditions: Fig. S4A
# Experimental: SA-β-Gal activity was measured following two different approaches. (i) AGS, MKN45 and PANC1 cells (5 × 10^4) were seeded in 24-multiwell dishes and incubated overnight. […] For flow cytometry cell senescence detection, cells were tripsinized, fixed for 15 min with PFA 4% and stained with the CellEvent Senescense Green Flow Cytometry Assay Kit (C10840, Invitrogen) according to manufacturer’s instructions. CellEvent Senescense Green Probe was used at a 1:500 dilution and fluorescence was detected using the filter (Ex488nm/Em530/30) BL1 with a 4-laser Attune NxT Acoustic Cytometer (Thermo Fisher Scientific). […] After 3 h, the treatments were removed, new supplemented medium was added, and cells were incubated for an additional 24 h. Finally, SA-β-Gal staining was performed using the Senescence Cells Histochemical Staining Kit (CS0030-1KT) according to the manufacturer’s instructions.
# PANC1 cells [2] = test: ROS detection by confocal microscopy (DHE, MitoSox); conditions: PANC1, 1 h treatment; H2O2 200 µM, CDDP 10 µM, I5 20 µM, I6 20 µM
# Experimental: Tumor cells were seeded at a density of 3 × 10^5 cells in 15 µm 8-well IBIDI plates and incubated overnight. […] Subsequently, cells were stained with 10 μM of dihydroethidium (DHE, cytosolic O2^·- probe, Sigma-Aldrich) or with 5 μM of Mitosox (mitochondrial O2^·- probe, Sigma-Aldrich) for 15–30 min[79] and then visualized on a confocal microscope (Confocal LSM 710 Zeiss, Biomedical Research Institute Alberto Sols, IIBm-CSIC-UAM, Madrid, Spain). The image analysis was realized using the software program Image J.
# PANC1 cells [3] = test: Ratio GSH/GSSG, colorimetric kit; conditions: PANC1, C+ (positive control), relative to Control = 1
# Experimental: (§1) GSH and GSSG levels were determined in AGS and PANC1 cells after 3 and 24 h of treatment with the compounds (using H2O2 as a positive control) with the Glutathione Colorimetric Detection Kit (ThermoFisher) following the manufacturer’s instructions. Thirty minutes after adding the Colorimetric Detection Reagent and the Reaction Mixture, the absorbance was read at 405 nm. A standard curve was generated with each assay to interpolate the sample results. To measure GSSG, standards and samples must be diluted with the Sample Diluent containing 2-vinylpyridine.
# AGS cells [4] = test: Ratio GSH/GSSG, colorimetric kit; conditions: AGS, C+ (positive control), relative to Control = 1
# Experimental: as §1
structure (smiles),measurement,setting,value
"OO [H2O2, reference compound]",Fold change % Senescence,AGS cells [1],52.81% and 54.43% and 58.54%
same,"DHE fluorescence intensity (per cell), cytosolic O2•−",PANC1 cells [2],174.023 and 151.84 and 151.685 and 148.486 and 115.72 and 133.113
same,GSH/GSSG,PANC1 cells [3],0.5945 and 0.659 and 0.8185
same,GSH/GSSG,AGS cells [4],0.8614 and 0.8667 and 0.9484
